Results: the supplement of paper PMC13380429

Key:
Conditions in all cases: 72 h
[1] = test system: Caco-2; experiment: cell viability relative to DMSO; higher = less toxic
[2] = test system: Calu-3; experiment: as above
[3] = test system: HepG2; experiment: as above
[4] = test system: U2OS; experiment: as above
[5] = test system: Vero E6; experiment: as above
[6] = test system: Caco-2; experiment: relative viability EC50 (midpoint between 100% and the lowest measured viability); higher = less toxic
[7] = test system: HepG2; experiment: as above
[8] = test system: U2OS; experiment: as above
[9] = test system: Vero E6; experiment: as above
[10] = test system: Caco-2; experiment: drug sensitivity score (DSS) for viability; higher = more toxic; extreme values may be limits of the assay
[11] = test system: Calu-3; experiment: as above
[12] = test system: HepG2; experiment: as above
[13] = test system: U2OS; experiment: as above
[14] = test system: Vero E6; experiment: as above
[15] = test system: Calu-3; experiment: relative viability EC50 (midpoint between 100% and the lowest measured viability); higher = less toxic

Structure (SMILES) | cell viability ([1]; 1 nM) [%] | cell viability ([1]; 10 nM) [%] | cell viability ([1]; 100 nM) [%] | cell viability ([1]; 1000 nM) [%] | cell viability ([1]; 10000 nM) [%] | cell viability ([2]; 1 nM) [%] | cell viability ([2]; 10 nM) [%] | cell viability ([2]; 100 nM) [%] | cell viability ([2]; 1000 nM) [%] | cell viability ([2]; 10000 nM) [%] | cell viability ([3]; 1 nM) [%] | cell viability ([3]; 10 nM) [%] | cell viability ([3]; 100 nM) [%] | cell viability ([3]; 1000 nM) [%] | cell viability ([3]; 10000 nM) [%] | cell viability ([4]; 1 nM) [%] | cell viability ([4]; 10 nM) [%] | cell viability ([4]; 100 nM) [%] | cell viability ([4]; 1000 nM) [%] | cell viability ([4]; 10000 nM) [%] | cell viability ([5]; 1 nM) [%] | cell viability ([5]; 10 nM) [%] | cell viability ([5]; 100 nM) [%] | cell viability ([5]; 1000 nM) [%] | cell viability ([5]; 10000 nM) [%] | relative viability EC50 [6] [µM] | relative viability EC50 [7] [µM] | relative viability EC50 [8] [µM] | relative viability EC50 [9] [µM] | drug sensitivity score [10] | drug sensitivity score [11] | drug sensitivity score [12] | drug sensitivity score [13] | drug sensitivity score [14] | relative viability EC50 [15] [µM]
COc1cccc(-c2cc(NCc3ccc4c(c3)OCO4)nc(N)n2)c1 [BML-284] | 104 | 93.4 | 102 | 62.4 | 46.6 | 104 | 92.9 | 102 | 66.9 | 62.4 | 97.7 | 97.2 | 93.9 | 52.9 | 30.5 | 92.8 | 97 | 95.8 | 49.8 | 27.7 | 102 | 99.9 | 101 | 29.8 | 27.6 | 0.707 | 0.572 | 0.59 | 0.349 | 7.3 | 5.8 | 9.8 | 10.3 | 12.8 | –
COc1cc(OC)c(/C=C2/C(=O)Nc3ccccc32)c(OC)c1 [IC261] | 96.9 | 92.9 | 95.1 | 90.5 | 57.6 | 90.1 | 97 | 95.9 | 96.7 | 61.8 | 97.5 | 102 | 108 | 92.9 | 37.1 | 95 | 99.8 | 98.5 | 86 | 41.6 | 99 | 99.2 | 102 | 69.2 | 39.1 | – | 2.24 | 1.58 | 0.991 | 3.7 | 2.4 | 4.6 | 5.4 | 7.2 | –
CC(=O)O/N=C1\C(=O)N(Cc2cc(Cl)ccc2Cl)c2ccc(Cl)cc21 | 97.3 | 92 | 104 | 91 | 83.9 | 103 | 90.7 | 93.9 | 98.4 | 61.8 | 97.9 | 97.7 | 104 | 108 | 86.9 | 100 | 99 | 97.7 | 96.6 | 97.3 | 98.3 | 105 | 97.3 | 98.7 | 97.9 | > 10 | > 10 | > 10 | > 10 | 1 | 2.1 | 0 | 0 | 0 | –
O=C(Nc1ccc([N+](=O)[O-])cc1O)Nc1ccccc1Br | 98.6 | 103 | 102 | 77 | 40.5 | 102 | 98.2 | 88.4 | 108 | 59.3 | 89.9 | 101 | 89.7 | 92 | 32.5 | 98.3 | 99.6 | 96.9 | 87 | 36.6 | 101 | 98.3 | 94.5 | 85.7 | 34.8 | 1.2 | 2.19 | 1.72 | 1.66 | 6.4 | 1.6 | 5.1 | 5.6 | 5.9 | –
NC[C@@H]1O[C@H](O[C@@H]2[C@@H](CO)OC(O[C@@H]3[C@@H](O)[C@H](N)C[C@H](N)[C@H]3OC3O[C@H](CN)[C@@H](O)[C@H](O)[C@H]3N)[C@@H]2O)[C@H](N)[C@@H](O)[C@@H]1O (stereo partly specified) [NEOMYCIN TRISULFATE] | 96.6 | 103 | 96.3 | 91.7 | 97.3 | – | – | – | – | – | – | – | – | – | – | – | – | – | – | – | – | – | – | – | – | > 10 | – | – | – | 0 | – | – | – | – | –
CN1C(=O)N(C)C2C1N(C)C(=O)N2C (stereo unspecified) [mebicar] | 101 | 106 | 98.5 | 97.9 | 95.8 | – | – | – | – | – | 110 | 107 | 114 | 97.9 | 92.2 | 104 | 104 | 99.8 | 106 | 102 | – | – | – | – | – | > 10 | > 10 | > 10 | – | 0 | – | 0 | 0 | – | –
c1ccc(CCCCN2CCC(c3ccccc3)CC2)cc1 [4-PPBP] | 94.7 | 94.9 | 89.8 | 86.1 | 84.4 | 93 | 111 | 96.7 | 95.1 | 69.3 | 99.8 | 103 | 101 | 93.8 | 77.9 | 90.7 | 91.2 | 96.1 | 94.7 | 84.6 | 100 | 102 | 102 | 99.7 | 90 | > 10 | > 10 | > 10 | > 10 | 1.4 | 2.2 | 1.6 | 0 | 0 | –
COc1ccc(Cl)c(Nc2nc3ccccc3nc2NS(=O)(=O)c2cccc(NC(=O)C(C)(C)N)c2)c1 [pilaralisib] | 91.3 | 96.4 | 109 | 93.9 | 68.3 | 93.9 | 86 | 96.8 | 88 | 60.2 | 96.9 | 97.5 | 96.9 | 86.6 | 57.9 | 97.9 | 94.4 | 98.9 | 94.1 | 81.4 | 97 | 98.7 | 93.8 | 99.4 | 81.2 | – | – | > 10 | > 10 | 2.4 | 3.5 | 3.8 | 1.1 | 0.6 | –
COc1cc(N2CCC(N3CCN(C)CC3)CC2)ccc1Nc1ncnc(Nc2ccccc2S(=O)(=O)C(C)C)n1 [ASP3026] | 102 | 101 | 95.7 | 92.7 | 68.6 | – | – | – | – | – | 107 | 96.6 | 99.7 | 88.7 | 25.2 | 100 | 94.5 | 99.6 | 98.5 | 70.9 | 92.9 | 97.9 | 100 | 90.9 | 51.7 | – | 1.98 | – | – | 2.5 | – | 6 | 1.4 | 4 | –
O=C(CCCN1CC=C(n2c(=O)[nH]c3ccccc32)CC1)c1ccc(F)cc1 [droperidol] | – | – | – | – | – | – | – | – | – | – | 116 | 113 | 106 | 108 | 89.1 | – | – | – | – | – | – | – | – | – | – | – | > 10 | – | – | – | – | 0 | – | – | –
CC(CNC(=O)c1cccnc1)NC(=O)c1cccnc1 (stereo unspecified) [nicaraven] | 97.3 | 103 | 94.9 | 97.6 | 89.4 | – | – | – | – | – | 94.7 | 106 | 90.8 | 101 | 98.9 | 97 | 97.2 | 98.7 | 99.8 | 92.1 | 93.8 | 99.1 | 101 | 97.3 | 97.7 | > 10 | > 10 | > 10 | > 10 | 0 | – | 0 | 0 | 0 | –
CCN1CCN(Cc2ccc(Nc3ncc(F)c(-c4cc(F)c5nc(C)n(C(C)C)c5c4)n3)nc2)CC1 [abemaciclib] | 109 | 97.2 | 90.7 | 78.8 | 67.8 | 106 | 108 | 89.4 | 63 | 74.7 | 101 | 94.8 | 84.1 | 47.1 | 0.9 | 107 | 107 | 108 | 87.6 | 0.1 | 101 | 100 | 95.3 | 77.9 | 38 | – | 0.741 | 2.16 | 1.35 | 4.2 | 8.1 | 12.5 | 7.6 | 6.1 | –
Cc1c(C)c2c(c(C)c1OC(=O)CCC(=O)O)CC[C@@](C)(CCC[C@H](C)CCC[C@H](C)CCCC(C)C)O2 [D-alpha-tocopheryl-succinate] | 98.2 | 104 | 106 | 96.5 | 102 | – | – | – | – | – | 95.4 | 109 | 95.3 | 106 | 113 | – | – | – | – | – | 97.8 | 101 | 97.9 | 102 | 111 | > 10 | > 10 | – | > 10 | 0 | – | 0 | – | 0 | –
COC(=O)C1=C(C)NC(C)=C(C(=O)OCC(C)C)C1c1ccccc1[N+](=O)[O-] (stereo unspecified) [nisoldipine] | 98.2 | 109 | 99.1 | 93.8 | 63.1 | 97.6 | 106 | 107 | 94.6 | 103 | 100 | 98.7 | 104 | 92.4 | 42.6 | 101 | 106 | 102 | 99.4 | 51.1 | 100 | 101 | 102 | 94.6 | 60.7 | – | 2.1 | – | – | 2.8 | 0 | 4.4 | 2.6 | 2.8 | > 10
O.O.O.O.O=C([O-])CC(O)(CC(=O)[O-])C(=O)[O-].[Li+].[Li+].[Li+] [lithium-citrate] | – | – | – | – | – | – | – | – | – | – | – | – | – | – | – | – | – | – | – | – | – | – | – | – | – | – | – | – | – | – | 0 | – | 0 | 0 | –
N[C@@H](CC(=O)Nc1ccc(Oc2cc(F)c(F)cc2Br)cc1)C(=O)O | 94.8 | 88.1 | 98.6 | 87 | 99 | – | – | – | – | – | 94.2 | 92.6 | 91.7 | 111 | 104 | 99 | 94.4 | 101 | 94.7 | 102 | 91 | 98.3 | 95.1 | 101 | 105 | > 10 | > 10 | > 10 | > 10 | 0 | – | 0 | 0 | 0 | –
